Where no end group is shown, it is not given here.
Columns and labels:
Assay type in all cases: cell-based
[1] = system: TrioGEFD2-mediated RhoA activation; test: RhoA activity assay (Rhotekin RBD pull-down) in COS cells; details: COS cells co-transfected, 48 hours
Description: FIG. 5B represents the inhibitory effect of TRIPα on TrioGEFD2-mediated RhoA activation in intact cells using the RhoA activity assay, COS cells were transfected with GFP-TRIPα (left line), TrioGEFD2 (middle line) or both (right line). Cell lysates were subjected to GST-pulldown using the recombinant RBD (RhoA binding domain) fragment of the RhoA-specific effector Rhotekin. The presence of the GTP-bound form of RhoA and of the total RhoA protein was detected using a monoclonal anti-RhoA antibody and is represented in the upper two panels. GFP-TRIPα and TrioGEFD2 expression in the cell lysates is shown in the lower two panels.
Quantification of the RhoA activity assay is shown in the right part of the figure. The y-axis represents the ratio between active RhoA and total RhoA, in arbitrary units.
The Inventors then wanted to assess the inhibition by TRIPα of TrioGEFD2-mediated activation of endogenous RhoA in intact cells. To do so, the RhoA activity assay was used to detect the active GTP-bound form of RhoA (Ren et al., 1999). Briefly, COS cells were transfected as described in FIG. 5A with TrioGEFD2 in absence or in the presence of GFP-TRIAPα. 48 hours after transfection, cell lysates were subjected to GST-pull down using 20 μg of the recombinant RBD (RhoA binding domain) fragment of the RhoA-specific effector Rhotekin, that binds only to the activated GTP-bound form of RhoA.

[2] = system: ectopically expressed TrioGEFD2 in PC12 cells; test: NGF-induced neurite outgrowth in PC12 cells expressing TrioGEFD2; details: PC12 co-transfected with TrioGEFD2, NGF 50 ng/ml 16 hours
Experimental: FIG. 5C represents the inhibition by TRIPα of the TrioGEFD2 effect in neuronal morphology. Immunofluorescence images of PC12 cells co-transfected with HA-TrioGEFD2 and either GFP-TRIPα (panels d, e, f) or GFP alone panels a, b, c) are shown. After 48 hours of expression, cells were treated for 16 hours with NGF (nerve growth factor) (50 ng/ml) and fixed. Expression of GFP and GFP-TRIPα was directly visualised (a, d) whereas overexpressed TrioGEFD2 was detected using the 12CA5 anti-HA antibody followed by AMCA-conjugated anti-mouse IgG (b, e). Filamentous actin was stained with Rhodamine-conjugated Phalloidin (c, f). Scale bar: 20 μm.
(§1) Cells were transfected with HA-tagged TrioGEFD2 (left side of the figure), myc-tagged KalGEFD2 (middle of the figure) or RhoAV14 (a constitutively active mutant of RhoA) (right side of the figure), and with either GFP-TRIPα (white bars), GFP-TRIPβ (hatched bars) or GFP alone (black bars). Cells were processed as described in FIG. 5C and the number of co-transfected cells with neurites was counted.
(§2) Numerous reports have established Rho-GTPases as key regulators of neuronal morphology (Luo, 2000). In neuronal cell lines, activation of RhoG, Rac and Cdc42 induces neurite outgrowth, while RhoA stimulation antagonises this effect by promoting neurite retraction (Katoh et al., 2000; Kozma et al., 1997; Yamaguchi et al., 2001). The PC12 cell line is a useful cellular model for studying Nerve Growth Factor (NGF)-induced neuronal differentiation. PC12-E2 cells were plated on collagen-coated 12 mm coverslips as described previously (Estrach et al., 2002) and transfected with the Lipofectamine Plus reagent (Life Technologies) according to the manufacturer's instructions. After transfection and differentiation with NGF (Promega, 50 ng/ml in DMEM medium supplemented with 0.5% horse serum (HS)) for 16 hours, PC12 cells were fixed and permeabilised as described (Estrach et al., 2002). […] Images were recorded using a Hamamatsu CCD camera. All transfections were repeated at least three times, and an average of 200 cells was counted each time. […]

[3] = system: KalGEFD2 in PC12 cells; test: NGF-induced neurite outgrowth in PC12 cells expressing KalGEFD2; details: PC12 co-transfected with KalGEFD2, NGF 50 ng/ml
Description: as §1
as §2, with “instructions.” for “instructions. After transfection and differentiation with NGF (Promega, 50 ng/ml in DMEM medium supplemented with 0.5% horse serum (HS)) for 16 hours, PC12 cells were fixed and permeabilised as described (Estrach et al., 2002).”

[4] = system: NGF-differentiated PC12 cells; test: Serum-induced neurite retraction; details: 15 min after serum (10% HS and 5% FCS); NGF 50 ng/ml 16 hours
Experimental: FIG. 6A represents histograms quantifying the effects of GFP-TRIPα or GFP on serum induced neurite retraction in NGF-differentiated PC12 cells. The X-axis represents the time after serum addition in minutes and the Y-axis represents the percentage of transfected cells with neurites.
Cells were transfected with GFP-TRIPα (white bars) or GFP (black bars) and differentiated with NGF (50 ng/ml). Serum was added and neurite retraction was followed for 15 minutes. The number of transfected cells with neurites was counted from at least 200 cells in 3 independent experiments.
(§3) Since Trio is an activator of RhoA and is expressed in PC12 cells (Estrach et al., 2002), it was analysed whether TRIPα could interfere with serum-induced neurite retraction in NGF-differentiated PC12 cells. […] After NGF treatment, cells were subjected to serum addition (DMEM medium supplemented with 10% HS and 5% fetal calf serum (FCS)) from 0 to 15 min (FIG. 6A). Cells were then fixed and permeabilised (Estrach et al., 2002) and observed as described in FIG. 5. Cells with neurites are defined as cells with neurites of at least twice the length of the cell body.

[5] = system: PC12 cells; test: NGF-induced neurite outgrowth; details: NGF 50 ng/ml, 1 to 24 hours
Experimental: PC12 were transfected with GFP-TRIPα (lack squares) or GFP (white diamonds) and subjected to a time-course exposure to NGF (50 ng/ml). At each time-point cells were fixed and the number of transfected cells with neurites was counted from at least 200 cells.
as §3
However, since the NGF treatment was performed for 16 hours, it was still possible that the effect of TRIPα on the NGF-differentiation signal was masked by the long NGF exposure. To test this hypothesis, PC12 cells expressing GFP-TRIPα or […] were subjected to a time-course exposure to NGF (50 ng/ml) for 1 to 24 hours.

## GFP-TRIPα: variable region of TRIAPα (TRIPα) fused to GFP, expressed from pEGFP-C3 plasmid (AREGADGAICGYNLATLVMLGPSERVFCPLCEPCSSDIYELM; cysteine pairing not given here; also: fused to GFP (carrier not in chain))
[1]
  Inhibition of TrioGEFD2-mediated RhoA activation in intact cells: significantly inhibited
[2]
  Reversion of TrioGEFD2 inhibition of NGF-induced neurite outgrowth: reverted the Trio-dependent inhibition
  percentage of co-transfected cells with neurites: 45%
[3]
  Effect on KalGEFD2 inhibition of NGF-induced neurite extension: similarly inhibited by KalGEFD2 either with or without
[4]
  percentage of transfected cells with neurites after serum addition: 32%
[5]
  Effect on NGF-induced neurite outgrowth, time course: responded to NGF treatment more quickly than the control cells

— patent publication US8088892B2, “Inhibitors of proteins from the Rho-GEF family” (Centre National de la Recherche Scientifique (C.N.R.S.), priority 2002, dated 2012)
